Source: patent US6383812B1, “Anti liver disease drug R-YEEE and method of synthesizing branched galactose-terminal glycoproteins” (Academia Sinica, priority 1999, dated 2002)

Assays:
[1] = biological target: T1, asialoglycoprotein receptor (ASGPr) (Homo sapiens, UniProt P07306+P07307); assay: Affinity of synthetic ligand to the asialoglycoprotein receptor; assay type: binding; conditions: relative to YEE(GalNAcAH)3; no method described
T1 sequence (P07306 1-291): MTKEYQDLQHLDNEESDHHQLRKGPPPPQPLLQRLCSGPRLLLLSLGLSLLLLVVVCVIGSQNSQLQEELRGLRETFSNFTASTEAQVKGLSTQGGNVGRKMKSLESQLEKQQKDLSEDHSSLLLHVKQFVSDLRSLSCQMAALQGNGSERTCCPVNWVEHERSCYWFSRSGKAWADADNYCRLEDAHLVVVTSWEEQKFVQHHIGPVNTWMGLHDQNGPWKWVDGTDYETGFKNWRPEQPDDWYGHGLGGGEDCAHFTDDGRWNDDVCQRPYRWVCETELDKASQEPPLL
T1 sequence (P07307 1-311): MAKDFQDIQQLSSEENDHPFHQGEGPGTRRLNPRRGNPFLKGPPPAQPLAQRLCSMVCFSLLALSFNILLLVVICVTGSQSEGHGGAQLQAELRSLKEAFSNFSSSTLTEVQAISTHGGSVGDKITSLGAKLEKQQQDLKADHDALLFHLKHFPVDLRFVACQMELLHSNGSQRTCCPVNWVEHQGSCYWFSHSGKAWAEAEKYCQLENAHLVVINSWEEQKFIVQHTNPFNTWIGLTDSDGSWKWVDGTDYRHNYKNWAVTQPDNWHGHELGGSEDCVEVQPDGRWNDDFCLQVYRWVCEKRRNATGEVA

[2] = biological target: T1, asialoglycoprotein receptor (ASGPr); conditions: reported by Lee et al., Glycoconjugate J., 1987; cited from earlier work

tris-(N-acetylgalactosamine aminohexyl)glycoside of tyrosyl(glutamyl)2 glutamate [YEEE(GalNAcAH)3]
affinity to asialoglycoprotein receptors [1]: comparable to YEE(GalNAcAH)3

tris-(N-acetylgalactosamine aminohexyl)glycoside of tyrosyl(glutamyl)glutamate [YEE(GalNAcAH)3]
affinity to the ASGP-r [2]: subnanomolar
